Test results reported in ChEMBL document CHEMBL1130595, “New generation dopaminergic agents. 5. Heterocyclic bioisosteres that exploit the 3-OH-N1-phenylpiperazine dopaminergic template” (Bioorg Med Chem Lett, 1998).

Key:
D(4) dopamine receptor = biological target: T1, D(4) dopamine receptor (Homo sapiens, UniProt P21917); assay: Affinity towards human Dopamine receptor D4.4 expressed in CHO cells using [3H]spiperone; format: cell-based
T1 sequence (P21917 whole entry): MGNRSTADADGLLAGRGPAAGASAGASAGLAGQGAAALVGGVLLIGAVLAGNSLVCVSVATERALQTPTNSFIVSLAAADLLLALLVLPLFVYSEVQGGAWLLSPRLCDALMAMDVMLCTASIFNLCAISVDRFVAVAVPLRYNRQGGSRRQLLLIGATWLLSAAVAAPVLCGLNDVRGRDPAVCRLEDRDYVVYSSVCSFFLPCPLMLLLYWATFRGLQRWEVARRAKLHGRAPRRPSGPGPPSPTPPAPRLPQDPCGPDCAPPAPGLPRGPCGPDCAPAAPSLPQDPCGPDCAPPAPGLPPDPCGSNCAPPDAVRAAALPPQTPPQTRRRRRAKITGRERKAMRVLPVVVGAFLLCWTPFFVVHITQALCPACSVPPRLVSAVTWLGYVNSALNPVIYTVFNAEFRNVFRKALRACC

D(2) dopamine receptor [1] = biological target: T2, D(2) dopamine receptor (Rattus norvegicus, UniProt P61169); assay: Affinity of compound for the Dopamine receptor D2 in rat striatal membranes was determined for […] in rat striatal membranes using [3H]spiperone; format: functional, cell membranes, Membrane
D(3) dopamine receptor = D(3) dopamine receptor (Homo sapiens, UniProt P35462); assay: Affinity towards human Dopamine receptor D3 expressed in CHO cells using [3H]spiperone; format: cell-based
D(2) dopamine receptor [2] = biological target: T3, D(2) dopamine receptor (Homo sapiens, UniProt P14416); assay: Ratio of the affinity against D2 receptor at low antagonist state to that of D2 receptor at high agonist state; format: functional
D(2) dopamine receptor [3] = biological target: T3, D(2) dopamine receptor; assay: Affinity towards human Dopamine receptor D2 expressed in CHO cells using [3H]spiperone; format: cell-based
D(2) dopamine receptor [4] = biological target: T2, D(2) dopamine receptor
Description: Affinity for Dopamine receptor D2 in rat striatal membranes for high agonist state using [3H]quinpirole

D(2) dopamine receptor [5] = biological target: T2, D(2) dopamine receptor; assay: Affinity of compound for the D2 receptors in rat striatal membranes was determined for low antagonist state in rat striatal membranes using [3H]spiperone; format: functional, cell membranes, Membrane
D(2) dopamine receptor [6] = biological target: T2, D(2) dopamine receptor; remark: listed apart in the source
Description: Affinity of compound for the Dopamine receptor D2 in rat striatal membranes was determined for low antagonist state in rat striatal membranes using [3H]spiperone

D(3) dopamine receptor, sequence (P35462 whole entry): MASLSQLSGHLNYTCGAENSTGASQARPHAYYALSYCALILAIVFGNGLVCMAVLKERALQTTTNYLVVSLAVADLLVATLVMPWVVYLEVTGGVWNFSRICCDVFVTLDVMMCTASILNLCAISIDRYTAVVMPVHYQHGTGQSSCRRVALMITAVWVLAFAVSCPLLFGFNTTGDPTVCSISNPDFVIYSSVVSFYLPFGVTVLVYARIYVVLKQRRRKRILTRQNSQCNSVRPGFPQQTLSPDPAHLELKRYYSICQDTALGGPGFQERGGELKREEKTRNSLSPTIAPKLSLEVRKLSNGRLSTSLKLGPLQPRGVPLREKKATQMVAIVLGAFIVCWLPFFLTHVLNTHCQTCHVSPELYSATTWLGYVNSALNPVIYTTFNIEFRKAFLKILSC
T2 sequence (P61169 whole entry): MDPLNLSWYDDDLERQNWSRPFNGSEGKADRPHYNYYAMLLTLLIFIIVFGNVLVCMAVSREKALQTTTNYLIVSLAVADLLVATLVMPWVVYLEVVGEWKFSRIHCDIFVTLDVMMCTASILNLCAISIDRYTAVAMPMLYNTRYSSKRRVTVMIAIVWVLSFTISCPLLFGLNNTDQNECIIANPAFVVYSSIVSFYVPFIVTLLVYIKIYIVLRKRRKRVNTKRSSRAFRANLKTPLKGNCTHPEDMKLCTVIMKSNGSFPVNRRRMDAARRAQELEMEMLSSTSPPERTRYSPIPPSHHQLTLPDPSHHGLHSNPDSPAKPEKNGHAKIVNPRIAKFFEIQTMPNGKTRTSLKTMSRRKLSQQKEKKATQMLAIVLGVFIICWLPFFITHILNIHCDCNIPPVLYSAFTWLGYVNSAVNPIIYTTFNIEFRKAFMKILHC
T3 sequence (P14416 whole entry): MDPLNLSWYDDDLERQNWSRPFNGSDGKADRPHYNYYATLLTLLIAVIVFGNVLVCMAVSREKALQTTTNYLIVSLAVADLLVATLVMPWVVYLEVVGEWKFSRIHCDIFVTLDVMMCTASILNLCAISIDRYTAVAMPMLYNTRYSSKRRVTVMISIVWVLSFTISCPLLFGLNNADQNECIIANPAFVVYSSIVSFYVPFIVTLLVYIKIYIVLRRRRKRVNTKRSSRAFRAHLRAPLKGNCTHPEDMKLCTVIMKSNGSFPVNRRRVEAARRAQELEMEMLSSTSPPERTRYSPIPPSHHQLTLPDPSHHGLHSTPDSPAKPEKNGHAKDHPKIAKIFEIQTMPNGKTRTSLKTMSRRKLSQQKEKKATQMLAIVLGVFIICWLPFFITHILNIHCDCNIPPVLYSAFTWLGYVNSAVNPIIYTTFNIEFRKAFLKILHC

Row | Ki (D(4) dopamine receptor) | Ki (D(3) dopamine receptor) | Ki (D(2) dopamine receptor [5]) | SMILES | Ki (D(2) dopamine receptor [1]) | Ratio (D(2) dopamine receptor [2]) | Ki (D(2) dopamine receptor [3]) | Ki (D(2) dopamine receptor [4]) | Ki (D(2) dopamine receptor [6])
1 | 1.7 nM | 95.3 nM | 42.3 nM | Clc1ccc2[nH]ccc2c1N1CCN(Cc2ccccc2)CC1 | – | 5 | 81.3 nM | 9.1 nM | –
2 | 8.8 nM | 591 nM | – | O=C1Cc2c(ccc(Cl)c2N2CCN(Cc3ccccc3)CC2)N1 | – | 7 | 540 nM | 84.8 nM | 403 nM
3 | 14.7 nM | 35.4 nM | – | c1ccc(CN2CCN(c3cccc4[nH]ccc34)CC2)cc1 | – | – | – | – | –

More lines, now with the values behind:

Row | SMILES | Ki (D(4) dopamine receptor) | Ki (D(3) dopamine receptor) | Ki (D(2) dopamine receptor [5]) | Ki (D(2) dopamine receptor [1]) | Ratio (D(2) dopamine receptor [2]) | Ki (D(2) dopamine receptor [3]) | Ki (D(2) dopamine receptor [4]) | Ki (D(2) dopamine receptor [6])
4 | FC(F)(F)c1nc2c(N3CCN(Cc4ccccc4)CC3)cccc2[nH]1 | 2.9 nM | 14.7 nM | – | 3.3 nM | 6 | 4.1 nM | 0.51 nM | –
5 | Brc1ccc(N2CCN(Cc3ccccc3)CC2)c2cc[nH]c12 | 2.6 nM | 56 nM | – | – | 0.5 | 47 nM | 26.8 nM | 12.2 nM
6 | O=c1[nH]c2cccc(N3CCN(Cc4ccccc4)CC3)c2[nH]1 | 14.4 nM | 56.5 nM | – | – | – | – | – | –
7 | O=C1Cc2c(cccc2N2CCN(Cc3ccccc3)CC2)N1 | 3 nM | 5.4 nM | – | – | 14 | 8 nM | 0.56 nM | 8.1 nM
8 | c1ccc(CN2CCN(c3cccc4[nH]cnc34)CC2)cc1 | 47 nM | 870 nM | – | – | 11 | 258 nM | 9.7 nM | 107 nM
